{"source": "patent US4169096A", "about": "“Antibiotic compounds” (priority 1977, dated 1979)", "key": {"Proteus morganii A9553": {"test_system": "Proteus morganii A9553", "experiment": "MIC, serial two-fold agar dilution, aerobic bacteria", "format": "cell-based", "settings": "Morganella morganii, Nutrient agar (Eiken)"}, "[1]": {"test_system": "Streptococcus pyogenes A20201", "experiment": "MIC, serial two-fold agar dilution, aerobic bacteria", "format": "cell-based", "settings": "GC medium (Eiken)"}, "S. pyogenes A20201 [2]": {"test_system": "S. pyogenes A20201", "experiment": "Systemic infection with S. pyogenes in mice", "format": "in vivo", "settings": "Streptococcus pyogenes, A20201, 120 h, just before challenge, determined after 5 days, read-out: PD50"}, "Micrococcus flavus": {"test_system": "Micrococcus flavus", "experiment": "MIC, serial two-fold agar dilution, aerobic bacteria", "format": "cell-based", "settings": "Nutrient agar (Eiken), read-out: MIC"}, "C. perfringens A9635 [3]": {"test_system": "C. perfringens A9635", "experiment": "animal or person", "format": "in vivo, mice", "settings": "Clostridium perfringens, A9635, in Mus musculus, 120 h, read-out: PD50"}, "[4]": {"test_system": "Neisseria meningitidis A21496", "experiment": "MIC, serial two-fold agar dilution, aerobic bacteria", "format": "cell-based", "settings": "GC medium (Eiken)"}, "C. perfringens A9635 [5]": {"test_system": "C. perfringens A9635", "experiment": "microbe, parasite or virus in culture", "format": "cell-based, Clostridium perfringens"}, "[6]": {"test_system": "Klebsiella pneumoniae A9678", "experiment": "MIC, serial two-fold agar dilution, aerobic bacteria", "format": "cell-based", "settings": "Nutrient agar (Eiken), read-out: MIC"}, "[7]": {"test_system": "Serratia marcescens A20019", "experiment": "MIC, serial two-fold agar dilution, aerobic bacteria", "format": "cell-based", "settings": "Nutrient agar (Eiken), read-out: MIC"}, "[8]": {"test_system": "Escherichia coli K-12 A9632", "experiment": "MIC, serial two-fold agar dilution, aerobic bacteria", "settings": "K12A9632"}, "B. fragilis A20928-1 [9]": {"test_system": "B. fragilis A20928-1", "experiment": "Bactericidal activity (MIC & MBC)", "format": "cell-based", "settings": "Bacteroides fragilis, A209281, inoculum size 2.8 × 10^6 cell/ml"}, "[10]": {"test_system": "Staphylococcus aureus #52-34", "experiment": "MIC, serial two-fold agar dilution, aerobic bacteria", "format": "cell-based", "settings": "Nutrient agar (Eiken), read-out: MIC"}, "[11]": {"test_system": "Staphylococcus aereus Smith", "experiment": "MIC, serial two-fold agar dilution, aerobic bacteria", "format": "cell-based", "settings": "Nutrient agar (Eiken), read-out: MIC"}, "[12]": {"test_system": "Neisseria meningitidis A20049", "experiment": "MIC, serial two-fold agar dilution, aerobic bacteria", "format": "cell-based", "settings": "GC medium (Eiken), read-out: MIC"}, "C. perfringens A9635 [13]": {"test_system": "C. perfringens A9635", "experiment": "microbe, parasite or virus in culture", "format": "cell-based", "settings": "Clostridium perfringens, A9635, read-out: MIC in GAM broth, inoculum size […] 10^6 cell/ml"}, "C. perfringens A9635 [14]": {"test_system": "C. perfringens A9635", "experiment": "microbe, parasite or virus in culture", "format": "cell-based", "settings": "Clostridium perfringens, A9635, 18 h"}, "Sarcina lutea PCI-1001": {"test_system": "Sarcina lutea PCI-1001", "experiment": "MIC, serial two-fold agar dilution, aerobic bacteria", "format": "cell-based", "settings": "Micrococcus luteus, PCI1001; Nutrient agar (Eiken); read-out: MIC"}, "Proteus mirabilis A9554": {"test_system": "Proteus mirabilis A9554", "experiment": "MIC, serial two-fold agar dilution, aerobic bacteria", "format": "cell-based", "settings": "Nutrient agar (Eiken)"}, "[15]": {"test_system": "Bacillus subtilis PCI-219", "experiment": "MIC, serial two-fold agar dilution, aerobic bacteria", "format": "cell-based", "settings": "PCI219"}, "[16]": {"test_system": "Streptococcus pyogenes A9604", "experiment": "MIC, serial two-fold agar dilution, aerobic bacteria", "format": "cell-based", "settings": "GC medium (Eiken)"}, "[17]": {"test_system": "Hemophilus influenzae A20188", "experiment": "MIC, serial two-fold agar dilution, aerobic bacteria", "format": "cell-based", "settings": "Haemophilus influenzae, GC medium (Eiken)"}, "bacterial RNA polymerase": {"test_system": "bacterial RNA polymerase", "settings": "Antimicrobial Agents and Chemotherapy 1976, page 618; cited from earlier work"}, "B. fragilis A20928-1 [18]": {"test_system": "B. fragilis A20928-1", "experiment": "Inoculum size effect on MIC, GAM broth", "format": "cell-based", "settings": "Bacteroides fragilis, A209281, read-out: MIC in GAM broth, inoculum size […] 10^6 cell/ml"}, "S. pyogenes A20201 [19]": {"test_system": "S. pyogenes A20201", "experiment": "Bactericidal activity (MIC & MBC)", "format": "cell-based", "settings": "Streptococcus pyogenes, A20201, 18 h"}, "[20]": {"test_system": "Escherichia coli Juhl A15119", "experiment": "MIC, serial two-fold agar dilution, aerobic bacteria", "format": "cell-based", "settings": "JUHLA15119, Nutrient agar (Eiken), read-out: MIC"}, "[21]": {"test_system": "Staphylococcus aureus 209P", "experiment": "MIC, serial two-fold agar dilution, aerobic bacteria", "format": "cell-based", "settings": "Nutrient agar (Eiken)"}, "[22]": {"test_system": "Pseudomonas aeruginosa A9843", "experiment": "MIC, serial two-fold agar dilution, aerobic bacteria", "format": "cell-based", "settings": "test medium not given"}}, "note": "Like-named read-outs stand apart in the source and are kept apart here."}
{"molecule": "CC(/C=C/C(=O)C1=C(O)CNC1=O)=C\\C(C)C1OC2(C)OC(C(=O)C3OC32C)C1C", "note": "(stereo not shown) [Tirandamycin, reference compound]", "values": [{"measurement": "MIC", "setting": "Proteus morganii A9553", "value": "> 100", "unit": "µg/mL"}, {"measurement": "MIC", "setting": "[1]", "value": 0.8, "unit": "µg/mL"}, {"measurement": "ED50", "setting": "S. pyogenes A20201 [2]; po, NA: no activity", "value": 50, "unit": "mg/kg"}, {"measurement": "ED50", "setting": "S. pyogenes A20201 [2]; sc", "value": 9.7, "unit": "mg/kg"}, {"measurement": "MIC", "setting": "Micrococcus flavus", "value": 25, "unit": "µg/mL"}, {"measurement": "ED50", "setting": "C. perfringens A9635 [3]; po", "value": 60, "unit": "mg/kg"}, {"measurement": "ED50", "setting": "C. perfringens A9635 [3]; sc", "value": 17, "unit": "mg/kg"}, {"measurement": "MIC", "setting": "[4]", "value": 0.8, "unit": "µg/mL"}, {"measurement": "MIC", "setting": "C. perfringens A9635 [5]; Clostridium perfringens, A9635, read-out: MIC in GAM agar", "value": 0.8, "unit": "µg/mL"}, {"measurement": "MIC in GAM agar", "setting": "C. perfringens A9635 [5]; inoculum size 7 × 10^6 cell/ml", "value": 0.8, "unit": "µg/mL"}, {"measurement": "MIC", "setting": "[6]", "value": "> 100", "unit": "µg/mL"}, {"measurement": "MIC", "setting": "[7]", "value": "> 100", "unit": "µg/mL"}, {"measurement": "MIC", "setting": "[8]", "value": "> 100", "unit": "µg/mL"}, {"measurement": "MIC", "setting": "B. fragilis A20928-1 [9]; broth", "value": 0.025, "unit": "µg/mL"}, {"measurement": "MBC", "setting": "B. fragilis A20928-1 [9]; growth of less than 100 colonies per plate, 18 hours at 37° C.", "value": "> 0.8", "unit": "µg/mL"}, {"measurement": "MIC", "setting": "[10]", "value": 50, "unit": "µg/mL"}, {"measurement": "MIC", "setting": "[11]", "value": "> 100", "unit": "µg/mL"}, {"measurement": "MIC", "setting": "[12]", "value": 0.8, "unit": "µg/mL"}, {"measurement": "MIC", "setting": "C. perfringens A9635 [13]", "value": 12.5, "unit": "µg/mL"}, {"measurement": "MBC", "setting": "C. perfringens A9635 [14]", "value": 3.1, "unit": "µg/mL"}, {"measurement": "MIC", "setting": "Sarcina lutea PCI-1001", "value": 50, "unit": "µg/mL"}, {"measurement": "MIC", "setting": "Proteus mirabilis A9554", "value": "> 100", "unit": "µg/mL"}, {"measurement": "MIC", "setting": "[15]", "value": 3.1, "unit": "µg/mL"}, {"measurement": "MIC", "setting": "[16]", "value": 0.8, "unit": "µg/mL"}, {"measurement": "MIC", "setting": "[17]", "value": 0.8, "unit": "µg/mL"}, {"measurement": "inhibition of bacterial RNA polymerase", "setting": "bacterial RNA polymerase", "value": "inhibitor of bacterial RNA polymerase in a manner similar to streptolydigin"}, {"measurement": "MIC", "setting": "B. fragilis A20928-1 [18]", "value": 6, "unit": "ng/mL"}, {"measurement": "MBC", "setting": "S. pyogenes A20201 [19]", "value": "> 12.5", "unit": "µg/mL"}, {"measurement": "MIC", "setting": "[20]", "value": "> 100", "unit": "µg/mL"}, {"measurement": "MIC", "setting": "[21]", "value": 100, "unit": "µg/mL"}, {"measurement": "MIC", "setting": "[22]", "value": "> 100", "unit": "µg/mL"}]}
